How the values were obtained:
Progesterone receptor = biological target: T1, Progesterone receptor (Homo sapiens, UniProt P06401); assay: Inhibition of tetramethylrhodamine labeled RU486 binding to PR by FP assay
T1 sequence (P06401 whole entry): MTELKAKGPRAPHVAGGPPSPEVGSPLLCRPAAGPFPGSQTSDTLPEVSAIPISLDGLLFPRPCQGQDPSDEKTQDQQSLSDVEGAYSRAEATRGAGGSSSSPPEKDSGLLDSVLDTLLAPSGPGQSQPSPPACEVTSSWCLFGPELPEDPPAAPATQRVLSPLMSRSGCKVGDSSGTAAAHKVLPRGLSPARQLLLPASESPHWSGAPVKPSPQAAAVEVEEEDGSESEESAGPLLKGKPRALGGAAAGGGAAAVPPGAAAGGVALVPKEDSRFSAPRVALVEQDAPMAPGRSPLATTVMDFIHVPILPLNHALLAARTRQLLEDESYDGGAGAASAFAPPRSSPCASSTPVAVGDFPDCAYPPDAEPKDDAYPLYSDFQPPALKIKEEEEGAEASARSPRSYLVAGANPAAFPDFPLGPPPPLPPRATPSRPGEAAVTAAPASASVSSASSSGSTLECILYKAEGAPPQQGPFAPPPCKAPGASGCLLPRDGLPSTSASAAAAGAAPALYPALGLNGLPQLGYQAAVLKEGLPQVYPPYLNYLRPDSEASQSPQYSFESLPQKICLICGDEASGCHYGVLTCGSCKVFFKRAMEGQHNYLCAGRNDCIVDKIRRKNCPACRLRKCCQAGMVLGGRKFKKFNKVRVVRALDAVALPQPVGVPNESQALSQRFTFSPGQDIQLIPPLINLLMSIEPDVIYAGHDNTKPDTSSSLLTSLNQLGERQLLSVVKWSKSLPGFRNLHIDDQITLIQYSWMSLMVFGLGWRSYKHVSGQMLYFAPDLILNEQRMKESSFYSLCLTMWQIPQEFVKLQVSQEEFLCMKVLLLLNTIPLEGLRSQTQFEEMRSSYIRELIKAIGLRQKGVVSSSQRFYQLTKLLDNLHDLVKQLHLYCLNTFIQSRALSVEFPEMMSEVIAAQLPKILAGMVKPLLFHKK

[1] = biological target: T2, Mineralocorticoid receptor (Homo sapiens, UniProt P08235); assay: Inhibition of tetramethylrhodamine labeled dexamethasone binding to MR by FP assay
T2 sequence (P08235 whole entry): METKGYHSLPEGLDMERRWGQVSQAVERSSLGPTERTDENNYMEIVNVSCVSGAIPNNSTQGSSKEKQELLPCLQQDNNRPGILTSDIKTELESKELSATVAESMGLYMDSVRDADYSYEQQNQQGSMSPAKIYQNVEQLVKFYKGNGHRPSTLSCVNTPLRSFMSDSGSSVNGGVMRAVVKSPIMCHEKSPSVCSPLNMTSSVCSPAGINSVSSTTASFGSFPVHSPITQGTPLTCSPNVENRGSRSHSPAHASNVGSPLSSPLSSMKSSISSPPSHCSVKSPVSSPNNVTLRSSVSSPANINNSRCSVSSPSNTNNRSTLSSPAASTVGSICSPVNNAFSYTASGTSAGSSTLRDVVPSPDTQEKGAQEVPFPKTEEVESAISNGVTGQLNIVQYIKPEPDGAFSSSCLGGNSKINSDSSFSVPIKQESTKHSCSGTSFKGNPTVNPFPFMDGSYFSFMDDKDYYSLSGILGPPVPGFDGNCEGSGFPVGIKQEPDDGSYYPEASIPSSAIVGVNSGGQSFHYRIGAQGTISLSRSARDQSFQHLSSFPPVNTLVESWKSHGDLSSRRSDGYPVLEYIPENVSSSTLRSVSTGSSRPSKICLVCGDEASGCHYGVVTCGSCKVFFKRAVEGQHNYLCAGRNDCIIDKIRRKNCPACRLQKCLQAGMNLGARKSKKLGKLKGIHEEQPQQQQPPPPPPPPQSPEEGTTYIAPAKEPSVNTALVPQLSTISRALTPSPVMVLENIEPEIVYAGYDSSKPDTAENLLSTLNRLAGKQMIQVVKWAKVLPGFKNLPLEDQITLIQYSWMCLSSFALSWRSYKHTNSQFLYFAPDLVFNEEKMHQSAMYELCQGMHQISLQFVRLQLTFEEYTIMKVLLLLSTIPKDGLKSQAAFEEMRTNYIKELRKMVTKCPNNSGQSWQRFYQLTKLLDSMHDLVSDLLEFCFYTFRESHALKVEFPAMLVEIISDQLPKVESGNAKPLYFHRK

Glucocorticoid receptor = biological target: T3, Glucocorticoid receptor (Homo sapiens, UniProt P04150)
T3 sequence (P04150 whole entry): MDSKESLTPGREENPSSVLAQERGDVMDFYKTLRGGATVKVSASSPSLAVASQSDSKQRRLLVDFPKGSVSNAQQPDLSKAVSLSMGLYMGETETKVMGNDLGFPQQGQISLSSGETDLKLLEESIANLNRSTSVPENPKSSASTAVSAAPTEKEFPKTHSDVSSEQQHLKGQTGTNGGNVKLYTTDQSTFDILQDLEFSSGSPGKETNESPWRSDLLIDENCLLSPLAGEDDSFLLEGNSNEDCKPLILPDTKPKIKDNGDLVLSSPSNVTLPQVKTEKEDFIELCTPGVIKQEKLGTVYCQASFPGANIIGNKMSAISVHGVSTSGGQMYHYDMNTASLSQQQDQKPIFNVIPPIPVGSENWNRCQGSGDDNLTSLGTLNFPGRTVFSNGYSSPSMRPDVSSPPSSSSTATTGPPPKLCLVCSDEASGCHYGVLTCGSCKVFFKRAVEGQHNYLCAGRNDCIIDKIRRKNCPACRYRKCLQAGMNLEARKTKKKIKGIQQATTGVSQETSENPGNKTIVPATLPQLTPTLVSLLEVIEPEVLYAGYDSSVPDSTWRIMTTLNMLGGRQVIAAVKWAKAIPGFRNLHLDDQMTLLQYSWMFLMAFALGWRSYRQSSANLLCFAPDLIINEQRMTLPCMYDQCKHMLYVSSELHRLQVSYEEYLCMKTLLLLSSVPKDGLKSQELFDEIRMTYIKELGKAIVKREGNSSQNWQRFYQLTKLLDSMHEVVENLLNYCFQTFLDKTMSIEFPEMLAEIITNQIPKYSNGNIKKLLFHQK

HFF [2] = assay: Inhibition of IL1-stimulated IL6 production in HFF cells; type: functional, cell-based; conditions: Homo sapiens
HFF [3] = assay: Inhibition of IL1-stimulated IL6 production in HFF cells relative to Dexamethasone; type: functional, Homo sapiens
HFF [4] = assay: Induction of aromatase activity in HFF cells assessed as production of beta estradiol by aromatase assay; type: functional, cell-based; conditions: Homo sapiens
HFF [5] = assay: Induction of aromatase activity in HFF cells assessed as production of beta estradiol by aromatase assay relative to Dexamethasone; type: functional, Homo sapiens
HeLa [6] = assay: Activation of MMTV in HeLa cells measured by luciferase activity; type: functional, cell-based; conditions: Homo sapiens
HeLa [7] = assay: Activation of MMTV in HeLa cells measured by luciferase activity relative to Dexamethasone; type: functional, Homo sapiens
Mus musculus = assay: Inhibition of LPS-stimulated TNFalpha production in BALB/c mouse at 10 mg/kg, po; type: functional

| SMILES | IC50 (Progesterone receptor) | IC50 [1] | IC50 (Glucocorticoid receptor) | EC50 (HeLa [6]) | IC50 (HFF [2]) | Efficacy (HFF [3]) | EC50 (HFF [4]) | Efficacy (HFF [5]) | Efficacy (HeLa [7]) | inhibition in vivo at 10 mg/kg (Mus musculus) |
| --- | --- | --- | --- | --- | --- | --- | --- | --- | --- | --- |
| CC(C)(CC(O)(Cn1ccc(=O)c2ccccc21)C(F)(F)F)c1ccc(F)cc1O (centres undefined) | 340 nM | 880 nM | 3 nM | 15 nM | – | 88% | 17 nM | 82% | 35% | – |
| COc1ccc(F)cc1C(C)(C)CC(O)(C(=O)Nc1ccc2c(=O)onc(C)c2c1)C(F)(F)F (centres undefined) | 22 nM | 130 nM | 8 nM | – | > 2000 nM | 19% | – | – | – | – |
| COc1ccc(F)cc1C(C)(C)CC(O)(Cn1cc(C)nc1C)C(F)(F)F (centres undefined) | > 2000 nM | 620 nM | 650 nM | – | – | – | – | – | – | – |
| COc1ccc(F)cc1C(C)(C)CC(O)(CN1CCOCC1)C(F)(F)F (centres undefined) | > 2000 nM | > 2000 nM | > 2000 nM | – | – | – | – | – | – | – |
| Cc1cn(CC(O)(CC(C)(C)c2cccc3c2OCC3)C(F)(F)F)cc(C)c1=O (centres undefined) | – | – | 34 nM | – | 39 nM | 77% | – | 26% | – | 49% |
| C[C@@H]1C[C@H]2[C@@H]3CCC4=CC(=O)C=C[C@]4(C)[C@@]3(F)[C@@H](O)C[C@]2(C)[C@@]1(O)C(=O)CO [DEXAMETHASONE] | > 2000 nM | – | – | 17 nM | 0.51 nM | – | 1.9 nM | – | – | – |
| COc1ccc(F)cc1C(C)(C)CC(O)(CN1CCC(=O)CC1)C(F)(F)F (centres undefined) | > 2000 nM | > 2000 nM | 1400 nM | – | – | – | – | – | – | – |
| COc1ccc(F)cc1C(C)(C)CC(O)(CN1C[C@H](C)O[C@@H](C)C1)C(F)(F)F (some centres undefined) | > 2000 nM | 1500 nM | 110 nM | – | > 2000 nM | 41% | – | – | – | – |
| Cc1noc(=O)c2ccc(NC(=O)C(O)(CC(C)(C)c3cccc4c3OCC4)C(F)(F)F)cc12 (centres undefined) | – | 38 nM | – | > 2000 nM | 59 nM | 80% | 91 nM | 56% | 14% | – |
| COc1ccc(F)cc1C(C)(C)CC(O)(Cn1ccc(=O)c2ncccc21)C(F)(F)F (centres undefined) | > 2000 nM | 1100 nM | 77 nM | – | 56 nM | 78% | – | 41% | – | – |
| COc1ccc(F)cc1C(C)(C)CC(O)(Cn1cnc2ccccc21)C(F)(F)F (centres undefined) | > 2000 nM | 775 nM | 54 nM | – | > 2000 nM | 15% | – | – | – | – |
| COc1ccc(F)cc1C(C)(C)CC(O)(CN1CCCc2ccccc21)C(F)(F)F (centres undefined) | > 2000 nM | 1600 nM | 950 nM | – | – | – | – | – | – | – |

Now from value to compound, other results behind:

| IC50 (Progesterone receptor) | IC50 [1] | IC50 (Glucocorticoid receptor) | EC50 (HeLa [6]) | SMILES | IC50 (HFF [2]) | Efficacy (HFF [3]) | EC50 (HFF [4]) | Efficacy (HFF [5]) | Efficacy (HeLa [7]) | inhibition in vivo at 10 mg/kg (Mus musculus) |
| --- | --- | --- | --- | --- | --- | --- | --- | --- | --- | --- |
| > 2000 nM | > 2000 nM | > 2000 nM | – | COc1ccc(F)cc1C(C)(C)CC(O)(Cn1ccnc1)C(F)(F)F (centres undefined) | – | – | – | – | – | – |
| > 2000 nM | > 2000 nM | 780 nM | – | Cc1ccc(O)cc1C(C)(C)CC(O)(Cn1ccc(=O)c2ccccc21)C(F)(F)F (centres undefined) | – | – | – | – | – | – |
| > 2000 nM | 1900 nM | 120 nM | > 2000 nM | COc1ccc(F)cc1C(C)(C)CC(O)(Cn1cc(C)c(=O)c(C)c1)C(F)(F)F (centres undefined) | 53 nM | 87% | 170 nM | 77% | 3% | – |
| – | – | 125 nM | – | Cc1ccc(F)cc1C(C)(C)CC(O)(Cn1cc(C)c(=O)c(C)c1)C(F)(F)F (centres undefined) | 70 nM | 71% | > 2000 nM | 20% | – | 48% |
| 106 nM | 350 nM | 28 nM | – | CC(C)(CC(O)(Cn1ccc(=O)c2ccccc21)C(F)(F)F)c1ccccc1 (centres undefined) | 78 nM | 48% | – | – | – | – |
| > 2000 nM | > 2000 nM | 690 nM | – | COc1ccc(F)cc1C(C)(C)CC(O)(Cn1cnc(=O)c2ccccc21)C(F)(F)F (centres undefined) | – | – | – | – | – | – |
| > 2000 nM | > 2000 nM | > 2000 nM | – | COc1ccc(F)cc1C(C)(C)CC(O)(Cn1ccc(=O)cc1)C(F)(F)F (centres undefined) | – | – | – | – | – | – |
| 525 nM | 91 nM | 11 nM | > 2000 nM | COc1ccc(C)c(C(C)(C)CC(O)(Cn2ccc(=O)c3ccccc32)C(F)(F)F)c1 (centres undefined) | 17 nM | 86% | 95 nM | 65% | 6% | – |
| 160 nM | 160 nM | 8 nM | – | Cc1ccc(O)c(C(C)(C)CC(O)(Cn2ccc(=O)c3ccccc32)C(F)(F)F)c1 (centres undefined) | 5.6 nM | 93% | – | – | – | – |
| 555 nM | 450 nM | 6 nM | – | CC(C)(CC(O)(Cn1ccc(=O)c2ccccc21)C(F)(F)F)c1ccccc1O (centres undefined) | 6 nM | 90% | – | – | – | – |
| – | – | 48 nM | – | Cc1ccc(F)cc1C(C)(C)CC(O)(Cn1ccc(=O)c2cnccc21)C(F)(F)F (centres undefined) | 47 nM | 59% | > 2000 nM | 14% | – | 58% |
| 48 nM | 98 nM | 4 nM | – | CC(C)(CC(O)(Cn1ccc(=O)c2ccccc21)C(F)(F)F)c1cccc2c1OCC2 (centres undefined) | 11 nM | 86% | – | 60% | – | 49% |
| > 2000 nM | 175 nM | 34 nM | > 2000 nM | COc1ccc(F)cc1C(C)(C)CC(O)(Cn1ccc(=O)c2cnccc21)C(F)(F)F (centres undefined) | 35 nM | 72% | – | 39% | 1% | – |
